Test results reported in patent publication US8173645B2 (Takeda San Diego, Inc., priority 2007, dated 2012).

Molecular target: T1, glucokinase (GK), residues 12-465 of the human enzyme (Homo sapiens, UniProt P35557)
T1 construct: I.D. No. 1 corresponds to residues 12-465 of glucokinase; made in house; host or cells: E. coli DH10b-Tlr
T1 sequence (P35557 with tags, fused parts or gaps isoform P35557-2): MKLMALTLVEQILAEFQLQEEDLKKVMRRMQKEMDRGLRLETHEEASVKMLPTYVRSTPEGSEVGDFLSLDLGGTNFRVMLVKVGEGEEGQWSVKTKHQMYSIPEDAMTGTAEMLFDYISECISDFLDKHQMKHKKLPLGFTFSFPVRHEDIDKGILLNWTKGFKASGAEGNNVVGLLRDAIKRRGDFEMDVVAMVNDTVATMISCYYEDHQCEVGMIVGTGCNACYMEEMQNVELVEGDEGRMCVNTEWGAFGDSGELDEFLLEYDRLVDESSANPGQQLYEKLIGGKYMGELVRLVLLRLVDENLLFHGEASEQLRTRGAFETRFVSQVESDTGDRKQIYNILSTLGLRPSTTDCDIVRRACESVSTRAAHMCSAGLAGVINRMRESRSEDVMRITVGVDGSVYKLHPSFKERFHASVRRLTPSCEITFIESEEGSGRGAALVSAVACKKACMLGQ
Experiment: Enzymatic glucokinase activity assay (KinaseGlo luminescence, ATP consumption)
Assay type: biochemical
Conditions: 5 μM ATP, 5 mM Glucose; for EC50: GK activation, Kact = concentration giving 50% of the maximal increase in GK activity, read-out: pKact; for Emax: calculated maximal gain in GK enzyme activity at a saturating concentration of the compound, read-out: % ACTmax
Procedure, shortened: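 Activation measured as ATP consumption: residual ATP detected by KinaseGlo luminescence after 60 min at room temperature with 5 μM ATP and 5 mM glucose (Hepes pH 7.2, MgCl2, Brij35, DTT, 2% DMSO). Enzyme was recombinant FLAG-tagged protein from E. coli. Eleven-point twofold series were fitted nonlinearly for pKact and % ACTmax.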

SMILES	EC50	Emax
O=C(Nc1ncc(Cl)s1)C(CC1CCOCC1)N1CCN(S(=O)(=O)c2cccc(F)c2)CC1=O (stereo not drawn) [Example 147, N-(5-chlorothiazol-2-yl)-2-(4-(3-fluorophenylsulfonyl)-2-oxopiperazin-1-yl)-3-(tetrahydro-2H-pyran-4-yl)propanamide]	0.794 to 1.26 µM	108 to 119%
COc1cc(C)c(S(=O)(=O)N2CCN([C@@H](CC3CCCCC3)C(=O)Nc3nccs3)C(=O)C2)c(C)c1C [Example 182, (S)-3-cyclohexyl-2-(4-(4-methoxy-2,3,6-trimethylphenylsulfonyl)-2-oxopiperazin-1-yl)-N-(thiazol-2-yl)propanamide]	0.794 to 1.26 µM	≤ 74%
CNC(=O)Nc1ccc(S(=O)(=O)N2CCN([C@@H](CC3CCCCC3)C(=O)Nc3nccs3)C(=O)C2)cc1Cl [Example 214, (S)-2-(4-(3-chloro-4-(3-methylureido)phenylsulfonyl)-2-oxopiperazin-1-yl)-3-cyclohexyl-N-(thiazol-2-yl)propanamide]	1.58 to 2.51 µM	97.1 to 107%
O=C(Nc1nccs1)[C@H](CC1CCCCC1)N1CCN(S(=O)(=O)Cc2cc(Cl)cc(Cl)c2)CC1=O [Example 212, (S)-3-cyclohexyl-2-(4-(3,5-dichlorobenzylsulfonyl)-2-oxopiperazin-1-yl)-N-(thiazol-2-yl)propanamide]	1.58 to 2.51 µM	74.1 to 97%
O=C(Nc1nccs1)[C@H](CC1CCCCC1)N1CCN(S(=O)(=O)c2cc3ccccc3o2)CC1=O [Example 226, (S)-2-(4-(benzofuran-2-ylsulfonyl)-2-oxopiperazin-1-yl)-3-cyclohexyl-N-(thiazol-2-yl)propanamide]	0.794 to 1.26 µM	74.1 to 97%
O=C(Nc1nccs1)[C@H](CC1CCCCC1)N1CCN(C(=O)Nc2cccc(C(F)(F)F)c2)CC1=O [Example 141, (S)-4-(3-cyclohexyl-1-oxo-1-(thiazol-2-ylamino)propan-2-yl)-3-oxo-N-(3-(trifluoromethyl)phenyl)piperazine-1-carboxamide]	≥ 3.16 µM	74.1 to 97%
O=C(Nc1nccs1)[C@H](CC1CCCCC1)N1CCN(C(=O)NC2CCCC2)CC1=O [Example 140, (S)-4-(3-cyclohexyl-1-oxo-1-(thiazol-2-ylamino)propan-2-yl)-N-cyclopentyl-3-oxopiperazine-1-carboxamide]	≥ 3.16 µM	74.1 to 97%
O=C(Nc1nccs1)[C@H](CC1CCCCC1)N1CCN(S(=O)(=O)C2CCCC2)CC1=O [Example 113, (S)-3-cyclohexyl-2-(4-(cyclopentylsulfonyl)-2-oxopiperazin-1-yl-N-thiazol-2-yl)propanamide]	≤ 0.631 µM	≥ 119%
O=C(Nc1nccs1)[C@H](CC1CCCCC1)N1CCN(S(=O)(=O)Cc2ccc(F)cc2)CC1=O [Example 68, (S)-3-cyclohexyl-2-(4-(4-fluorobenzylsulfonyl)-2-oxopiperazin-1-yl)-N-(thiazol-2-yl)propanamide]	0.794 to 1.26 µM	97.1 to 107%
COC(=O)c1ccc(S(=O)(=O)N2CCN([C@@H](CC3CCCCC3)C(=O)Nc3nccs3)C(=O)C2)o1 [Example 158, (S)-methyl 5-(4-(3-cyclohexyl-1-oxo-1-(thiazol-2-ylamino)propan-2-yl)-3-oxopiperazin-1-ylsulfonyl)furan-2-carboxylate]	≥ 3.16 µM	74.1 to 97%
O=C(Nc1nccs1)[C@H](CC1CCCCC1)N1CCN(S(=O)(=O)c2ccc(Cl)s2)CC1=O [Example 172, (S)-2-(4-(5-chlorothiophen-2-ylsulfonyl)-2-oxopiperazin-1-yl)-3-cyclohexyl-N-(thiazol-2-yl)propanamide]	≤ 0.631 µM	97.1 to 107%
O=C(Nc1nccs1)[C@H](CC1CCCCC1)N1CCN(S(=O)(=O)Cc2cccc(C(F)(F)F)c2)CC1=O [Example 213, (S)-3-cyclohexyl-2-(2-oxo-4-(3-(trifluoromethyl)benzylsulfonyl)piperazin-1-yl)-N-(thiazol-2-yl)propanamide]	1.58 to 2.51 µM	74.1 to 97%
O=C(Nc1nccs1)[C@H](CC1CCCCC1)N1CCN(S(=O)(=O)c2cccc(Cl)c2F)CC1=O [Example 188, (S)-2-(4-(3-chloro-2-fluorophenylsulfonyl)-2-oxopiperazin-1-yl)-3-cyclohexyl-N-(thiazol-2-yl)propanamide]	≤ 0.631 µM	≥ 119%
CC(C)C[C@@H](C(=O)Nc1ncc(Cl)s1)N1CCN(S(=O)(=O)C2CC2)CC1=O [Example 10, (S)—N-(5-chlorothiazol-2-yl)-2-(4-(cyclopropylsulfonyl)-2-oxopiperazin-1-yl)-4-methylpentanamide]	0.794 to 1.26 µM	≥ 119%
Cc1nn(C)c(Cl)c1S(=O)(=O)N1CCN([C@@H](CC2CCCCC2)C(=O)Nc2nccs2)C(=O)C1 [Example 47, (S)-2-(4-(5-chloro-1,3-dimethyl-1H-pyrazol-4-ylsulfonyl)-2-oxopiperazin-1-yl)-3-cyclohexyl-N-(thiazol-2-yl)propanamide]	1.58 to 2.51 µM	97.1 to 107%
O=C(Nc1nccs1)[C@H](CC1CCCCC1)N1CCN(S(=O)(=O)c2c(Cl)nc3sccn23)CC1=O [Example 164, (S)-2-(4-(6-chloroimidazo[2,1-b]thiazol-5-ylsulfonyl)-2-oxopiperazin-1-yl)-3-cyclohexyl-N-(thiazol-2-yl)propanamide]	≥ 3.16 µM	108 to 119%
O=C(Nc1nccs1)[C@H](CC1CCCCC1)N1CCN(S(=O)(=O)c2cccc3cccnc23)CC1=O [Example 40, (S)-3-cyclohexyl-2-(2-oxo-4-(quinolin-8-ylsulfonyl)piperazin-1-yl)-N-(thiazol-2-yl)propanamide]	0.794 to 1.26 µM	108 to 119%
O=C(Nc1nccs1)[C@H](CC1CCCCC1)N1CCN(S(=O)(=O)c2ccc(Br)c(Br)c2)CC1=O [Example 231, (S)-3-cyclohexyl-2-(4-(3,4-dibromophenylsulfonyl)-2-oxopiperazin-1-yl)-N-(thiazol-2-yl)propanamide]	0.794 to 1.26 µM	≤ 74%
N#Cc1cccc(S(=O)(=O)N2CCN([C@@H](CC3CCCCC3)C(=O)Nc3nccs3)C(=O)C2)c1 [Example 62, (S)-2-(4-(3-cyanophenylsulfonyl)-2-oxopiperazin-1-yl)-3-cyclohexyl-N-(thiazol-2-yl)propanamide]	0.794 to 1.26 µM	108 to 119%
N#Cc1cc(S(=O)(=O)N2CCN([C@@H](CC3CCCCC3)C(=O)Nc3nccs3)C(=O)C2)ccc1F [Example 230, (S)-2-(4-(3-cyano-4-fluorophenylsulfonyl)-2-oxopiperazin-1-yl)-3-cyclohexyl-N-(thiazol-2-yl)propanamide]	1.58 to 2.51 µM	74.1 to 97%
O=C(Nc1nccs1)[C@H](CC1CCCCC1)N1CCN(S(=O)(=O)N2CCCC2)CC1=O [Example 229, (S)-3-cyclohexyl-2-(2-oxo-4-(pyrrolidin-1-ylsulfonyl)piperazin-1-yl)-N-(thiazol-2-yl)propanamide]	≤ 0.631 µM	108 to 119%
COc1ccc(CNC(=S)N2CCN([C@@H](CC3CCCCC3)C(=O)Nc3nccs3)C(=O)C2)cc1 [Example 122, (S)-3-cyclohexyl-2-(4-(4-methoxybenzylcarbamothioyl)-2-oxopiperazin-1-yl)-N-(thiazol-2-yl)propanamide]	1.58 to 2.51 µM	74.1 to 97%
CC(=O)N1CCC(CC(C(=O)Nc2nccs2)N2CCN(S(=O)(=O)C3CC3)CC2=O)C1 (stereo not drawn) [Example 20, 3-(1-acetylpyrrolidin-3-yl)-2-(4-(cyclopropylsulfonyl)-2-oxopiperazin-1-yl)-N-(thiazol-2-yl)propanamide]	0.794 to 1.26 µM	108 to 119%
Cc1c(S(=O)(=O)N2CCN([C@@H](CC3CCCCC3)C(=O)Nc3nccs3)C(=O)C2)cnn1-c1ccccc1 [Example 163, (S)-3-cyclohexyl-2-(4-(5-methyl-1-phenyl-1H-pyrazol-4-ylsulfonyl)-2-oxopiperazin-1-yl)-N-(thiazol-2-yl)propanamide]	1.58 to 2.51 µM	≤ 74%
CCn1cc(S(=O)(=O)N2CCN([C@@H](CC3CCCCC3)C(=O)Nc3nccs3)C(=O)C2)cn1 [Example 110, (S)-3-cyclohexyl-2-(4-(1-ethyl-1H-pyrazol-4-ylsulfonyl)-2-oxopiperazin-1-yl)-N-(thiazol-2-yl)propanamide]	≥ 3.16 µM	≥ 119%
O=C(Nc1nccs1)[C@H](CC1CCCCC1)N1CCN(C(=S)NCc2ccccc2)CC1=O [Example 82, (S)-2-(4-(benzylcarbamothioyl)-2-oxopiperazin-1-yl)-3-cyclohexyl-N-(thiazol-2-yl)propanamide]	1.58 to 2.51 µM	108 to 119%
Cc1nccc(-c2cccc(S(=O)(=O)N3CCN([C@@H](CC4CCCCC4)C(=O)Nc4nccs4)C(=O)C3)c2)n1 [Example 169, (S)-3-cyclohexyl-2-(4-(3-(2-methylpyrimidin-4-yl)phenylsulfonyl)-2-oxopiperazin-1-yl)-N-(thiazol-2-yl)propanamide]	0.794 to 1.26 µM	97.1 to 107%
